# Reference: patent US10597388B2, “Pyridazinone herbicides” (FMC CORPORATION, priority 2014, dated 2020)
# How the values were obtained:
# Test in all cases: Test D controlled growth environment herbicide test, pre- and postemergence
# Format in all cases: in vivo
# [1] = tested on: Russian thistle (Salsola kali)
# Text: (§1) Seeds of plant species selected from bluegrass (annual bluegrass, Poa annua), blackgrass (Alopecurus myosuroides), Canada thistle (Cirsium arvense), canarygrass (Phalaris minor), chickweed (common chickweed, Stellaria media), geranium, cutleaf (cutleaf geranium, Geranium dissectum), galium (catchweed bedstraw, Galium aparine), bromegrass, downy (downy bromegrass, Bromus tectorum), field poppy (Papaver rhoeas), field violet (Viola arvensis), foxtail, green (green foxtail, Setaria viridis), deadnettle (henbit deadnettle, Lamium amplexicaule), ryegrass, Italian (Italian ryegrass, Lolium multiflorum), kochia (Kochia scoparia), lambsquarters (Chenopodium album), oilseed rape (Brassica napus), pigweed (Amaranthus retroflexus), chamomile (scentless chamomile, Matricaria inodora), Russian thistle (Salsola kali), speedwell (bird's-eye speedwell, Veronica persica), barley, spring (spring barley, Hordeum vulgare), wheat, spring (spring wheat, Triticum aestivum), buckwheat, wild (wild buckwheat, Polygonum convolvulus), mustard, wild (wild mustard, Sinapis arvensis), oat, wild (wild oat, Avena fatua), radish, wild (wild radish, Raphanus raphanistrum), windgrass (Apera spica-venti), barley, winter (winter barley, Hordeum vulgare), and wheat, winter (winter wheat, Triticum aestivum) were planted into a silt loam soil and treated preemergence with test chemicals formulated in a non-phytotoxic solvent mixture which included a surfactant.
# (§2) At the same time, these species were planted in pots containing Redi-Earth® planting medium (Scotts Company, 14111 Scottslawn Road, Marysville, Ohio 43041) comprising spaghnum peat moss, vermiculite, wetting agent and starter nutrients and treated with postemergence applications of the test chemicals formulated in the same manner. Plants ranged in height from 2 to 18 cm (1- to 4-leaf stage). Treated plants and controls were maintained in a controlled growth environment for 14 to 21 d after which time all species were compared to controls and visually evaluated. Plant response ratings, summarized in Table D, are based on a scale of 0 to 100 where 0 is no effect and 100 is complete control. A dash (-) response means no test result.
# [2] = tested on: blackgrass (Alopecurus myosuroides)
# Text: as §1, §2
# [3] = tested on: bromegrass, downy (downy bromegrass, Bromus tectorum)
# Text: as §1, §2
# [4] = tested on: chickweed (common chickweed, Stellaria media)
# Text: as §1, §2
# [5] = tested on: deadnettle (henbit deadnettle, Lamium amplexicaule)
# Text: as §1, §2
# [6] = tested on: foxtail, green (green foxtail, Setaria viridis)
# Text: as §1, §2
# [7] = tested on: mustard, wild (wild mustard, Sinapis arvensis)
# Text: as §1, §2
# [8] = tested on: oat, wild (wild oat, Avena fatua)
# Text: as §1, §2
# [9] = tested on: oilseed rape (Brassica napus)
# Text: as §1, §2
# [10] = tested on: ryegrass, Italian (Italian ryegrass, Lolium multiflorum)
# Text: as §1, §2
# [11] = tested on: speedwell (bird's-eye speedwell, Veronica persica)
# Text: as §1, §2
# [12] = tested on: wheat, spring (spring wheat, Triticum aestivum)
# Text: as §1, §2
# [13] = tested on: wheat, winter (winter wheat, Triticum aestivum)
# Text: as §1, §2
# [14] = Postemergence, 31 g ai/ha, scale 0 to 100 (0 no effect, 100 complete control)
# [15] = Postemergence, 125 g ai/ha, visual rating on scale 0 (no effect) to 100 (complete control), 14 to 21 d
# [16] = Postemergence, 250 g ai/ha, scale 0 to 100 (0 no effect, 100 complete control)
# [17] = Preemergence, 62 g ai/ha, scale 0 to 100 (0 no effect, 100 complete control)
# [18] = Preemergence, 125 g ai/ha, scale 0 to 100 (0 no effect, 100 complete control)
# [19] = Preemergence, 250 g ai/ha, scale 0 to 100, 0 no effect, 100 complete control
# [20] = postemergence, 62 g ai/ha, scale 0 to 100, 0 no effect, 100 complete control
compound,measurement,setting,value
Cc1cc2ccccc2c(-c2c(O)c(C)nn(C)c2=O)c1C [Compound 34],Russian Thistle plant response rating,[1]; [14],70
same,"Plant response rating, Russian Thistle",[1]; [15],80
same,"Plant response rating, Russian Thistle",[1]; [16],85
same,"Plant response rating (scale of 0 to 100), Russian Thistle","[1]; Preemergence, 31 g ai/ha",0
same,"Plant response rating, Russian Thistle",[1]; [17],0
same,"Plant response rating, Russian Thistle",[1]; [18],10
same,"Plant response rating, Russian Thistle",[1]; [19],15
same,"Plant response rating, Russian Thistle",[1]; [20],80
same,Blackgrass plant response rating,[2]; [14],25
same,"Plant response rating, Blackgrass",[2]; [15],70
same,"Plant response rating, Blackgrass",[2]; [16],75
same,"Plant response rating (scale of 0 to 100), Blackgrass","[2]; Preemergence, 31 g ai/ha",15
same,"Plant response rating, Blackgrass",[2]; [17],20
same,"Plant response rating, Blackgrass",[2]; [18],40
same,Blackgrass plant response rating,[2]; [19],65
same,"Plant response rating, Blackgrass",[2]; [20],40
same,"Bromegrass, Downy plant response rating",[3]; [14],20
same,"Plant response rating, Bromegrass, Downy",[3]; [15],40
same,"Plant response rating, Bromegrass, Downy",[3]; [16],70
same,"Plant response rating (scale of 0 to 100), Bromegrass, Downy","[3]; Preemergence, 31 g ai/ha",0
same,"Plant response rating, Bromegrass, Downy",[3]; [17],50
same,"Plant response rating, Bromegrass, Downy",[3]; [18],50
same,"Plant response rating, Bromegrass, Downy",[3]; [19],80
same,"Plant response rating, Bromegrass, Downy",[3]; [20],30
same,Chickweed plant response rating,[4]; [14],95
same,"Plant response rating, Chickweed",[4]; [15],100
same,"Plant response rating, Chickweed",[4]; [16],100
same,"Plant response rating (scale of 0 to 100), Chickweed","[4]; Preemergence, 31 g ai/ha",85
same,"Plant response rating, Chickweed",[4]; [17],95
same,"Plant response rating, Chickweed",[4]; [18],100
same,"Plant response rating, Chickweed",[4]; [19],100
same,"Plant response rating, Chickweed",[4]; [20],100
same,Deadnettle plant response rating,[5]; [14],95
same,"Plant response rating, Deadnettle",[5]; [15],100
same,"Plant response rating, Deadnettle",[5]; [16],100
same,"Plant response rating (scale of 0 to 100), Deadnettle","[5]; Preemergence, 31 g ai/ha",0
same,"Plant response rating, Deadnettle",[5]; [17],40
same,"Plant response rating, Deadnettle",[5]; [18],50
same,"Plant response rating, Deadnettle",[5]; [19],95
same,"Plant response rating, Deadnettle",[5]; [20],100
same,"Foxtail, Green plant response rating",[6]; [14],40
same,"Plant response rating, Foxtail, Green",[6]; [15],55
same,"Plant response rating, Foxtail, Green",[6]; [16],70
same,"Plant response rating (scale of 0 to 100), Foxtail, Green","[6]; Preemergence, 31 g ai/ha",55
same,"Plant response rating, Foxtail, Green",[6]; [17],60
same,"Plant response rating, Foxtail, Green",[6]; [18],60
same,"Plant response rating, Foxtail, Green",[6]; [19],75
same,"Plant response rating, Foxtail, Green",[6]; [20],45
same,"Mustard, Wild plant response rating",[7]; [14],80
same,"Plant response rating, Mustard, Wild",[7]; [15],100
same,"Plant response rating, Mustard, Wild",[7]; [16],100
same,"Plant response rating (scale of 0 to 100), Mustard, Wild","[7]; Preemergence, 31 g ai/ha",15
same,"Plant response rating, Mustard, Wild",[7]; [17],25
same,"Plant response rating, Mustard, Wild",[7]; [18],75
same,"Plant response rating, Mustard, Wild",[7]; [19],100
same,"Plant response rating, Mustard, Wild",[7]; [20],85
same,"Oat, Wild plant response rating",[8]; [14],75
same,"Plant response rating, Oat, Wild",[8]; [15],95
same,"Plant response rating, Oat, Wild",[8]; [16],95
same,"Plant response rating (scale of 0 to 100), Oat, Wild","[8]; Preemergence, 31 g ai/ha",70
same,"Plant response rating, Oat, Wild",[8]; [17],75
same,"Plant response rating, Oat, Wild",[8]; [18],85
same,"Plant response rating, Oat, Wild",[8]; [19],90
same,"Plant response rating, Oat, Wild",[8]; [20],85
same,Oilseed Rape plant response rating,[9]; [14],65
same,"Plant response rating, Oilseed Rape",[9]; [15],75
same,"Plant response rating, Oilseed Rape",[9]; [16],90
same,"Plant response rating (scale of 0 to 100), Oilseed Rape","[9]; Preemergence, 31 g ai/ha",10
same,"Plant response rating, Oilseed Rape",[9]; [17],55
same,"Plant response rating, Oilseed Rape",[9]; [18],50
same,"Plant response rating, Oilseed Rape",[9]; [19],85
same,"Plant response rating, Oilseed Rape",[9]; [20],70
same,"Ryegrass, Italian plant response rating",[10]; [14],90
same,"Plant response rating, Ryegrass, Italian",[10]; [15],95
same,"Plant response rating, Ryegrass, Italian",[10]; [16],95
same,"Plant response rating (scale of 0 to 100), Ryegrass, Italian","[10]; Preemergence, 31 g ai/ha",75
same,"Plant response rating, Ryegrass, Italian",[10]; [17],95
same,"Plant response rating, Ryegrass, Italian",[10]; [18],100
same,"Plant response rating, Ryegrass, Italian",[10]; [19],100
same,"Plant response rating, Ryegrass, Italian",[10]; [20],95
same,Speedwell plant response rating,[11]; [14],65
same,"Plant response rating, Speedwell",[11]; [15],100
same,"Plant response rating, Speedwell",[11]; [16],100
same,"Plant response rating (scale of 0 to 100), Speedwell","[11]; Preemergence, 31 g ai/ha",100
same,"Plant response rating, Speedwell",[11]; [17],100
same,"Plant response rating, Speedwell",[11]; [18],100
same,"Plant response rating, Speedwell",[11]; [19],100
same,"Plant response rating, Speedwell",[11]; [20],75
same,"Wheat, Spring plant response rating",[12]; [14],0
same,"Plant response rating, Wheat, Spring",[12]; [15],15
same,"Plant response rating, Wheat, Spring",[12]; [16],45
same,"Plant response rating (scale of 0 to 100), Wheat, Spring","[12]; Preemergence, 31 g ai/ha",0
same,"Plant response rating, Wheat, Spring",[12]; [17],0
same,"Plant response rating, Wheat, Spring",[12]; [18],25
same,"Plant response rating, Wheat, Spring",[12]; [19],60
same,"Plant response rating, Wheat, Spring",[12]; [20],10
same,"Wheat, Winter plant response rating",[13]; [14],5
same,"Plant response rating, Wheat, Winter",[13]; [15],15
same,"Plant response rating, Wheat, Winter",[13]; [16],25
same,"Plant response rating (scale of 0 to 100), Wheat, Winter","[13]; Preemergence, 31 g ai/ha",0
same,"Plant response rating, Wheat, Winter",[13]; [17],0
same,"Plant response rating, Wheat, Winter",[13]; [18],25
same,"Plant response rating, Wheat, Winter",[13]; [19],40
same,"Plant response rating, Wheat, Winter",[13]; [20],25
